# In patent publication US11814391B2, “Macrocyclic compounds for the treatment of medical disorders” (Achillion Pharmaceuticals, Inc., priority 2018, dated 2023):
# Biological target: Human Factor D (Homo sapiens (Human), UniProt P00746)
# Experiment: Human Factor D assay
# Assay type: biochemical
# Details: not given
# Protocol: The assay of Example 3 was used to determine the IC50's of the compounds. Other standard factor D inhibition assays are also available.
# Human Factor D (purified from human serum, Complement Technology, Inc.) at 80 nM final concentration is incubated with test compound at various concentrations for 5 min at room temperature in 50 mM Tris, 1M NaCl, pH 7.5. A synthetic substrate Z-L-Lys-SBzI and DTNB (Ellman's reagent) are added to final concentrations of 100 μM each. Absorbance at 405 nm (A405) is recorded at 30 second intervals for 30 min using a microplate spectrophotometer. IC50 values are calculated by nonlinear regression of complement Factor D reaction rates as a function of test compound concentration.
# Chain of Human Factor D (P00746 26-253): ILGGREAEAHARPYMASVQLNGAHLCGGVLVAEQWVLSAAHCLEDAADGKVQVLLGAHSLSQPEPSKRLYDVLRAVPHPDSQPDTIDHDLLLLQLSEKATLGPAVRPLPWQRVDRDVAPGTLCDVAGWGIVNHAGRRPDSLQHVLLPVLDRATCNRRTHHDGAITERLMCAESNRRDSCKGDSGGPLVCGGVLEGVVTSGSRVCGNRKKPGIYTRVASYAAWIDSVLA
row,SMILES,IC50 [µM]
1,"CC(=O)c1nn2c3c(cc(-c4cnc(C)nc4)cc13)CCCCCCCCCCN([C@@H](C)C(=O)Nc1nc(Br)ccc1C)C(=O)C2 [Compound 35, (S)-2-(2-acetyl-4-(2-methylpyrimidin-5-yl)-17-oxo-8,9,10,11,12,13,14,15,17,18-decahydro-6H-[1,4]diazacyclohexadecino[15,16,1-hi]indazol-16(7H)-yl)-N-(6-bromo-3-methylpyridin-2-yl)propanamide]",1 to 10

# Same assay, conditions: Human Factor D 80 nM, substrate Z-L-Lys-SBzl, A405; read-out: IC50 (Stars)
row,SMILES,IC50 [µM]
1,"CC(=O)c1nn2c3c(cc(CCC(C)C)cc13)CCCCCCC(=O)NC[C@@]13C[C@@H](C(=O)Nc4nc(C(F)(F)F)ccc4C)N(C(=O)C2)[C@@H]1C3 [Compound 20, (4^1R,4^3S,4^5R)-1^3-acetyl-1^5-isopentyl-N-(3-methyl-6-(trifluoromethyl)pyridin-2-yl)-3,7-dioxo-1^1H-4^2,6-diaza-1(1,7)-indazola-4(2,5)-bicyclo[3.1.0]hexanacyclotridecaphane-4^3-carboxamide]",< 1
2,"CC(=O)c1nn2c3c(cc(C(C)C)cc13)CCCCCCC(=O)NC[C@@]13C[C@@H](C(=O)Nc4nc(C(F)(F)F)ccc4C)N(C(=O)C2)[C@@H]1C3 [Compound 21, (4^1R,4^3S,4^5R)-1^3-Acetyl-1^5-isopropyl-N-(3-methyl-6-(trifluoromethyl)pyridin-2-yl)-3,7-dioxo-1^1H-4^2,6-diaza-1(1,7)-indazola-4(2,5)-bicyclo[3.1.0]hexanacyclotridecaphane-4^3-carboxamide]",< 1
3,"CC(=O)c1nn2c3c(cc(-c4cnc5cc(C)nn5c4)cc13)CCCCC[C@@H](C)C(=O)NC[C@@]13C[C@@H](C(=O)Nc4nc(C(F)(F)F)ccc4C)N(C(=O)C2)[C@@H]1C3 [Compound 22, (4^1R,4^3S,4^5R,8R)-1^3-acetyl-8-methyl-N-(3-methyl-6-(trifluoromethyl)pyridin-2-yl)-15-(2-methylpyrazolo[1,5-a]pyrimidin-6-yl)-3,7-dioxo-1^1H-4^2,6-diaza-1(1,7)-indazola-4(2,5)-bicyclo[3.1.0]hexanacyclotridecaphane-4^3-carboxamide]",< 1
4,"CC(=O)c1nn2c3c(cc(-c4cnc(C)cn4)cc13)CCCCC[C@@H](C)C(=O)NC[C@@]13C[C@@H](C(=O)Nc4nc(C(F)(F)F)ccc4C)N(C(=O)C2)[C@@H]1C3 [Compound 23, (4^1R,4^3S,4^5R,8R)-1^3-acetyl-8-methyl-N-(3-methyl-6-(trifluoromethyl)pyridin-2-yl)-15-(5-methylpyrazin-2-yl)-3,7-dioxo-1^1H-4^2,6-diaza-1(1,7)-indazola-4(2,5)-bicyclo[3.1.0]hexanacyclotridecaphane-4^3-carboxamide]",< 1
5,"CC(=O)c1nn2c3c(cc(NCC(C)C)cc13)CCCCCCC(=O)NC[C@@]13C[C@@H](C(=O)Nc4nc(C(F)(F)F)ccc4C)N(C(=O)C2)[C@@H]1C3 [Compound 24, (4^1R,4^3S,4^5R)-1^3-acetyl-15-(isobutylamino)-N-(3-methyl-6-(trifluoromethyl)pyridin-2-yl)-3,7-dioxo-1^1H-4^2,6-diaza-1(1,7)-indazola-4(2,5)-bicyclo[3.1.0]hexanacyclotridecaphane-4^3-carboxamide]",< 1
6,"CC(=O)c1nn2c3c(cc(NC(C)C)cc13)CCCCCCC(=O)NC[C@@]13C[C@@H](C(=O)Nc4nc(C(F)(F)F)ccc4C)N(C(=O)C2)[C@@H]1C3 [Compound 25, (4^1R,4^3S,4^5R)-1^3-acetyl-1^5-(isopropylamino)-N-(3-methyl-6-(trifluoromethyl)pyridin-2-yl)-3,7-dioxo-1^1H-4^2,6-diaza-1(1,7)-indazola-4(2,5)-bicyclo[3.1.0]hexanacyclotridecaphane-4^3-carboxamide]",< 1
7,"CC(=O)c1nn2c3c(cc(-c4cnc(C)nc4)cc13)CCCCC(C)(C)CC(=O)NC[C@@]13C[C@@H](C(=O)Nc4nc(C(F)(F)F)ccc4C)N(C(=O)C2)[C@@H]1C3 [Compound 26, (4^1R,4^3S,4^5R)-1^3-acetyl-9,9-dimethyl-N-(3-methyl-6-(trifluoromethyl)pyridin-2-yl)-15-(2-methylpyrimidin-5-yl)-3,7-dioxo-1^1H-4^2,6-diaza-1(1,7)-indazola-4(2,5)-bicyclo[3.1.0]hexanacyclotridecaphane-4^3-carboxamide]",< 1
8,"CNc1cc2c3c(c1)c(C(C)=O)nn3CC(=O)N1[C@H](C(=O)Nc3nc(C(F)(F)F)ccc3C)C[C@@]3(CNC(=O)CCCCCC2)C[C@@H]13 [Compound 27, (4^1R,4^3S,4^5R)-1^3-acetyl-N-(3-methyl-6-(trifluoromethyl)pyridin-2-yl)-1^5-(methylamino)-3,7-dioxo-1^1H-4^2,6-diaza-1(1,7)-indazola-4(2,5)-bicyclo[3.1.0]hexanacyclotridecaphane-4^3-carboxamide]",< 1
9,"CC(=O)c1nn2c3c(cc(CC(C)C)cc13)CCCCCCC(=O)NC[C@@]13C[C@@H](C(=O)Nc4nc(C(F)(F)F)ccc4C)N(C(=O)C2)[C@@H]1C3 [Compound 28, (4^1R,4^3S,4^5R)-1^3-acetyl-1^5-isobutyl-N-(3-methyl-6-(trifluoromethyl)pyridin-2-yl)-3,7-dioxo-1^1H-4^2,6-diaza-1(1,7)-indazola-4(2,5)-bicyclo[3.1.0]hexanacyclotridecaphane-4^3-carboxamide]",< 1
10,"CC(=O)c1nn2c3c(cc(-c4cnc(C)nc4)cc13)CCCCCCC(=O)NC[C@@]13C[C@@H](C(=O)NC(C)[C@H]4CC4(Cl)Cl)N(C(=O)C2)[C@@H]1C3 (stereo partly drawn) [Compound 29, (4^1R,4^3S,4^5R)-1^3-acetyl-N-((R)-1-((R)-2,2-dichlorocyclopropyl)ethyl)-1^5-(2-methylpyrimidin-5-yl)-3,7-dioxo-1^1H-4^2,6-diaza-1(1,7)-indazola-4(2,5)-bicyclo[3.1.0]hexanacyclotridecaphane-4^3-carboxamide]",< 1
11,"CC(=O)c1nn2c3c(cc(-c4cnc(C)nc4)cc13)CCCCCCC(=O)NC[C@@]13C[C@@H](C(=O)N[C@@H](C)[C@H]4CC4(Cl)Cl)N(C(=O)C2)[C@@H]1C3 [Compound 30, (4^1R,4^3S,4^5R)-1^3-acetyl-N-((S)-1-((R)-2,2-dichlorocyclopropyl)ethyl)-1^5-(2-methylpyrimidin-5-yl)-3,7-dioxo-1^1H-4^2,6-diaza-1(1,7)-indazola-4(2,5)-bicyclo[3.1.0]hexanacyclotridecaphane-4^3-carboxamide]",< 1
12,"CC(=O)c1nn2c3c(cc(-c4cnc(C)nc4)cc13)CCCC[C@H](C)CC(=O)NC[C@@]13C[C@@H](C(=O)Nc4nc(C(F)(F)F)ccc4C)N(C(=O)C2)[C@@H]1C3 [Compound 31, (4^1R,4^3S,4^5R,9S)-1^3-acetyl-9-methyl-N-(3-methyl-6-(trifluoromethyl)pyridin-2-yl)-1^5-(2-methylpyrimidin-5-yl)-3,7-dioxo-1^1H-4^2,6-diaza-1(1,7)-indazola-4(2,5)-bicyclo[3.1.0]hexanacyclotridecaphane-4^3-carboxamide]",< 1
13,"CC(=O)c1nn2c3c(cc(-c4cnc(C)nc4)cc13)CCCCCCCNC[C@@]13C[C@@H](C(=O)Nc4nc(C(F)(F)F)ccc4C)N(C(=O)C2)[C@@H]1C3 [Compound 32, (4^1R,4^3S,4^5R)-1^3-acetyl-N-(3-methyl-6-(trifluoromethyl)pyridin-2-yl)-1^5-(2-methylpyrimidin-5-yl)-3-oxo-1^1H-4^2,6-diaza-1(1,7)-indazola-4(2,5)-bicyclo[3.1.0]hexanacyclotridecaphane-4^3-carboxamide]",< 1
14,"CC(=O)c1nn2c3c(cc(-c4cnc(C)nc4)cc13)CNC(=O)CCCCOC[C@@]13C[C@@H](C(=O)Nc4nc(C(F)(F)F)ccc4C)N(C(=O)C2)[C@@H]1C3 [Compound 33, (4^1R,4^3S,4^5S)-1^3-acetyl-N-(3-methyl-6-(trifluoromethyl)pyridin-2-yl)-1^5-(2-methylpyrimidin-5-yl)-3,11-dioxo-1^1H-6-oxa-4^2,12-diaza-1(1,7)-indazola-4(2,5)-bicyclo[3.1.0]hexanacyclotridecaphane-4^3-carboxamide]",< 1
15,"CC(=O)c1nn2c3c(cc(-c4cnc(C)nc4)cc13)CCCC[C@@H](C)CC(=O)NC[C@@]13C[C@@H](C(=O)Nc4nc(C(F)(F)F)ccc4C)N(C(=O)C2)[C@@H]1C3 [Compound 34, (4^1R,4^3S,4^5R,9R)-1^3-acetyl-9-methyl-N-(3-methyl-6-(trifluoromethyl)pyridin-2-yl)-1^5-(2-methylpyrimidin-5-yl)-3,7-dioxo-1^1H-4^2,6-diaza-1(1,7)-indazola-4(2,5)-bicyclo[3.1.0]hexanacyclotridecaphane-4^3-carboxamide]",< 1
16,"CC(=O)c1nn2c3c(cc(-c4cnc(C)nc4)cc13)CNCCCCCOC[C@@]13C[C@@H](C(=O)Nc4nc(C(F)(F)F)ccc4C)N(C(=O)C2)[C@@H]1C3 [Compound 36, (4^1R,4^3S,4^5S)-1^3-acetyl-N-(3-methyl-6-(trifluoromethyl)pyridin-2-yl)-1^5-(2-methylpyrimidin-5-yl)-3-oxo-1^1H-6-oxa-4^2,12-diaza-1(1,7)-indazola-4(2,5)-bicyclo[3.1.0]hexanacyclotridecaphane-4^3-carboxamide]",< 1
17,"CC(=O)c1nn2c3c(cc(-c4cnc(C)nc4)cc13)CNCC/C=C/COC[C@@]13C[C@@H](C(=O)Nc4nc(C(F)(F)F)ccc4C)N(C(=O)C2)[C@@H]1C3 [Compound 37, (4^1R,4^3S,4^5S,E)-1^3-acetyl-N-(3-methyl-6-(trifluoromethyl)pyridin-2-yl)-1^5-(2-methylpyrimidin-5-yl)-3-oxo-1^1H-6-oxa-4^2,12-diaza-1(1,7)-indazola-4(2,5)-bicyclo[3.1.0]hexanacyclotridecaphan-8-ene-4^3-carboxamide]",< 1
